Results published in article PMC5011342, “A high throughput drug screening assay to identify compounds that promote oligodendrocyte differentiation using acutely dissociated and purified oligodendrocyte precursor cells” (BMC Research Notes, 2016).
Where two headings read alike, the source gives them in different places.

How the values were obtained:
[1] = system: expanded OPCs; test: cells; conditions: for viability at 0.1 µM / viability at 1 µM / viability at 10 µM: Rattus norvegicus, 72 h; for 0.1 µM (% DMSO) / 1 µM (% DMSO) / 10 µM (% DMSO): alamarBlue viability of expanded OPCs, relative to DMSO control; for 0.1 µM (% DMSO): compound at 0.1 µM; for 1 µM (% DMSO): compound at 1 µM; for 10 µM (% DMSO): compound at 10 µM
In short: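 Expanded OPCs seeded at 10,000 cells/well in differentiation media, then exposed to NCC library compounds at 10, 1 and 0.1 µM (quadruplicate, 0.1% DMSO) for three days. Viability read as alamarBlue fluorescence (560/590 nm) after 4 h at 37 °C; tunicamycin 5 ng/ml served as toxicity control.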

[2] = system: acutely dissociated and purified rat OPCs; test: Acute OL differentiation assay (MBP expression/cell, immunofluorescent image quantification); type: cell-based; conditions: Rattus norvegicus, sheet "All OLga data"
In short: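 Oligodendrocyte precursor cells were enriched from P6-P7 Sprague–Dawley rat brains by immunopanning (RAN-2 and GalC depletion, O4 selection), plated at 5000 cells/well in serum-free, mitogen-free differentiation media on PDL/laminin 96-well view plates, centrifuged at 200×g, and pre-incubated 1–2 h before test compounds were added in quadruplicate. On DIV4, cells were fixed, stained for MBP and DAPI, imaged automatically, and MBP expression per cell was quantified.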

[3] = read-out: 0.1 µM (% DMSO), alamarBlue viability of expanded OPCs, compound at 0.1 µM, sheet All Tox data
[4] = read-out: 1 µM (% DMSO), alamarBlue viability of expanded OPCs, compound at 1 µM, sheet All Tox data
[5] = read-out: 10 µM (% DMSO), alamarBlue viability of expanded OPCs, compound at 10 µM, sheet All Tox data
[6] = 2 uM test compound, relative to quetiapine, read-out: OL differentiation, 2 uM (% Quet)
[7] = 10 uM test compound, relative to quetiapine, read-out: OL differentiation, 10 uM (% Quet)
[8] = read-out: 0.1 µM (% DMSO), alamarBlue viability, NCC library compound at 0.1 µM, sheet "All Tox data"
[9] = read-out: 1 µM (% DMSO), alamarBlue viability, NCC library compound at 1 µM, sheet "All Tox data"
[10] = read-out: 10 µM (% DMSO), alamarBlue viability, NCC library compound at 10 µM, sheet "All Tox data"
[11] = test compound at 2 uM, NCC library screen, relative to quetiapine, read-out: 2 uM (% Quet)
[12] = test compound at 10 uM, NCC library screen, relative to quetiapine, read-out: 10 uM (% Quet)
[13] = test compound at 0.4 uM, NCC library screen, relative to quetiapine, read-out: 0.4 uM (% Quet)

SMILES	viability at 0.1 µM [1, 3] [%]	viability at 1 µM [1, 4] [%]	viability at 10 µM [1, 5] [%]	activation at 2 µM [2, 6] [%]	activation at 10 µM [2, 7] [%]	activation at 2 µM [2, 11] [%]	activation at 10 µM [2, 12] [%]	other results
Cc1cccc(Nc2ccncc2S(=O)(=O)NC(=O)NC(C)C)c1 [Torsemide]	90.5	88.3	93.4	31.2	-6.1	–	–	–
NC1CCN(c2nc3c(cc2F)c(=O)c(C(=O)O)cn3-c2ccc(F)cc2F)C1 (centres unmarked) [Tosufloxacin]	95.4	104	92.2	-17.9	-6.5	–	–	–
COc1cccc(C2(O)CCCCC2CN(C)C)c1 (centres unmarked) [Tramadol]	–	–	–	–	–	-1.7	-9.7	viability at 0.1 µM [1, 8]: 100%; viability at 1 µM [1, 9]: 107%; viability at 10 µM [1, 10]: 96.7%
COc1ccc(/C=C/C(=O)Nc2ccccc2C(=O)O)cc1OC [Tranilast]	90.5	90	85.8	5.9	-18.5	–	–	–
O=c1n(CCCN2CCN(c3cccc(Cl)c3)CC2)nc2ccccn12 [Trazodone]	90.8	78.9	84.9	-7.5	55	–	–	–
O=C(O[C@H]1[C@H](Oc2ccccc2COC(=O)C2(O)C=CCCC2=O)O[C@H](CO)[C@@H](O)[C@@H]1O)c1ccccc1 (some centres unmarked) [Tremulacin]	–	–	–	–	–	-176	–	viability at 0.1 µM [1, 8]: 86.6%; viability at 1 µM [1, 9]: 85.4%; viability at 10 µM [1, 10]: 20.7%; activation at 0.4 µM [2, 13]: -46.7%
CC1(C)O[C@@H]2C[C@H]3[C@@H]4CCC5=CC(=O)C=C[C@]5(C)[C@@]4(F)[C@@H](O)C[C@]3(C)[C@]2(C(=O)CO)O1 [Triamcinolone Acetonide]	–	–	–	–	–	-1.9	1.9	viability at 0.1 µM [1, 8]: 133%; viability at 1 µM [1, 9]: 127%; viability at 10 µM [1, 10]: 127%
Nc1nc(N)c2nc(-c3ccccc3)c(N)nc2n1 [Triamterene]	–	–	–	–	–	0.9	-18.8	viability at 0.1 µM [1, 8]: 94.9%; viability at 1 µM [1, 9]: 96.5%; viability at 10 µM [1, 10]: 95.3%
CSc1nc2cc(Cl)c(Oc3cccc(Cl)c3Cl)cc2[nH]1 [Triclabendazole]	96.9	131	11.1	-46.6	–	–	–	activation at 0.4 µM ([2]; 0.4 uM test compound, relative to quetiapine, read-out: OL differentiation, 0.4 uM (% Quet)): -13.1%
Oc1cc(Cl)ccc1Oc1ccc(Cl)cc1Cl [Triclosan]	–	–	–	–	–	–	–	0.1 µM (% DMSO) [1]: 100.2 % DMSO; 1 µM (% DMSO) [1]: 117.5 % DMSO; 10 µM (% DMSO) [1]: 9.2 % DMSO; activation at 0.4 µM [2, 13]: 8.6%
OC(CCN1CCCCC1)(c1ccccc1)C1CCCCC1 (centres unmarked) [Trihexyphenidyl]	–	–	–	–	–	–	–	0.1 µM (% DMSO) [1]: 90.6 % DMSO; 1 µM (% DMSO) [1]: 84.6 % DMSO; 10 µM (% DMSO) [1]: 67.7 % DMSO; activation at 2 µM ([2]; test compound at 2 uM, MBP expression relative to quetiapine, NCC library screen, read-out: 2 uM (% Quet)): -19.1%; activation at 10 µM ([2]; test compound at 10 uM, MBP expression relative to quetiapine, NCC library screen, read-out: 10 uM (% Quet)): -45.6%
N[C@@H](Cc1cc(I)c(Oc2ccc(O)c(I)c2)c(I)c1)C(=O)O [Triiodothyronine]	–	–	–	–	–	-36.3	-37.8	0.1 µM (% DMSO) [1]: 237.5 % DMSO; 1 µM (% DMSO) [1]: 217.6 % DMSO; 10 µM (% DMSO) [1]: 207.1 % DMSO
CCC(COC(=O)c1cc(OC)c(OC)c(OC)c1)(c1ccccc1)N(C)C (centres unmarked) [Trimebutine]	113	135	147	31.4	-25.8	–	–	–
COc1cc(Cc2cnc(N)nc2N)cc(OC)c1OC [Trimethoprim]	–	–	–	–	–	-30.5	-40.8	0.1 µM (% DMSO) [1]: 93.8 % DMSO; 1 µM (% DMSO) [1]: 89.7 % DMSO; 10 µM (% DMSO) [1]: 86.5 % DMSO
CN(C)CCN(Cc1ccccc1)c1ccccn1 [Tripelennamine]	82.9	86.1	80.7	8.2	31.1	–	–	–
